Results taken from patent publication US20230190707A1, “COMPOSITIONS AND METHODS FOR ENHANCING CANCER IMMUNOTHERAPY” (FRED HUTCHINSON CANCER CENTER, priority 2020, published 2023).

Columns and labels:
RBM39 = molecular target: T1, RBM39 (Mus musculus, UniProt Q6PFH3+Q8VH51); experiment: RBM39 degradation, western blot densitometry; assay type: cell-based
T1 construct: endogenous in cells; host or cells: B16-F10 (also MC38, CT26, LLC)
Method: Western blotting was performed as per standard techniques. Anti-RBM39 (Atlas Antibodies, Cat. HPA001591 or Bethyl laboratories, Cat. A300-291A) were used to detect RBM39 degradation. ADMA and SDMA levels were determined using antibodies from Cell Signaling Technologies (Cat. 13222S and Cat. 135225). Actin antibody (clone AC-15) was obtained from MilliporeSigma (Cat. A5441-.2ML). Densitometry of RBM39 and actin loading control was performed using ImageJ software in order to calculate RBM39 degradation IC50 values.

[1] = system: B16-F10, MC38, CT26, and LLC cells; experiment: Cell growth/viability IC50 (CellTiter-Glo); assay type: cell-based; details: Mus musculus; range across B16-F10, MC38, CT26, LLC cells
Method: Cell lines were grown with half-log10 concentrations of the indicated drug in 4 to 8 technical replicates under standard conditions until the control condition (DMSO or vehicle) was confluent by microscopy. For tumor cell lines, viable cells were quantified via the CellTiter-Glo® assay (Promega Cat. G7573) as per manufacturer instructions. For the ex vivo proliferation of T cells, viable cells were instead quantified via flow cytometry using counting beads. The percentage or number of viable cells with drug treatment was calculated relative to DMSO control (as 100%). […] For absolute cell number, Annexin V+, CD25+, and PD1+ flow cytometry data presented in Figure S4, dose-response models and IC50 values were computed using the R language's dre package (Ritz, C., et al. (2015). Dose-Response Analysis Using R. PLoS One 10, e0146021).

[2] = system: MHC I, MHC II, PD-L1, IFNγ receptors, TNF receptors, DR5; experiment: Cell-surface marker expression after drug treatment; assay type: cell-based, mouse
OT-1 T cells = experiment: Intracellular cytokine staining of OT-1 T cells; assay type: cell-based, mouse; details: higher doses
Method: OT-1 cells were prepared and incubated with ovalbumin-expressing tumors as described above in the LAMP-1 assay. For some experiments OT-1 cells were instead left unstimulated (DMSO) or treated with PMA 1 μg/mL+ionomycin 1 μM as a supraphysiologic stimulus. In all cases, T cells underwent a 5-6 hour incubation period in the presence of DMSO or splicing modulators at the indicated concentrations, and with brefeldin A and monensin present for the entire duration. Cells were subsequently washed, stained for surface markers, and then fixed/permeabilized for intracellular staining of the indicated cytokines according to manufacturer instructions (BD Biosciences).

[3] = mouse, in vivo
Method: Animals were subcutaneously engrafted on bilateral flanks with tumor cells (MC38 1×10^6, B16-F10 0.5×10^6 and LLC 0.25×10^6 cells unless otherwise specified) on day 0, and treated continuously with splicing inhibitors (MS-023 50 mg/kg i.p., indisulam 25 mg/kg i.v. or vehicle) daily for 5 of 7 weekly days starting from day +3 of tumor challenge. […] Mice were weighed weekly for weight-based drug dosing.

MC38 cells = experiment: In vivo tumor challenge with ex vivo MS-023-treated MC38 cells; set-up: species or system mouse; details: MC38 cells treated 5 μM for 96 hours
Method: Unless otherwise specified, cell lines were treated with splicing inhibitors at the indicated concentrations for 96 hours in vitro, harvested and washed three times with PBS in excess to remove all drug, and then used for downstream analyses and/or subsequent studies, including phenotyping, RNA-seq analyses, continued growth in vitro, or tumor challenge in vivo into syngeneic animals.
Unless otherwise specified, syngeneic B6 or Balb/c mice were engrafted subcutaneously on bilateral flanks with MC38, B16-F10, CT26 or LLC tumor cells at the following doses: MC38 10^6 cells, B16-F10 0.5×10^6 cells, CT26 0.25×10^6 cells, LLC 0.25×10^6 cells. Tumors were measured serially twice or three times weekly and tumor volumes were estimated by length×width×height. Animals were monitored daily for survival and weighed twice weekly. Experimental endpoints mandating euthanasia were approved by the IACUC and included: animal lethargy, severe kyphosis or evidence of pain, difficulty with ambulation or feeding, tumor ulceration>1 cm or bleeding tumor, evidence of infected tumor, tumor volumes exceeding 2.5 cm^3, or animal total body weight loss>10% from baseline.

| SMILES | RBM39 protein following drug removal (RBM39; ex vivo 1 μM for four days followed by drug washout) | DC50 (RBM39; range across B16-F10, MC38, CT26, LLC cells, 24 hours, read-out: IC50 values for RBM39 degradation) | IC50 [1] | cell-surface expression of MHC I, MHC II, PD-L1, or cytokine or death receptors [2] | ability of OT-1 T cells to secrete IFNγ or TNFα (OT-1 T cells) | lymphocytes, neutrophils, or other peripheral blood counts [3] | tumor growth following engraftment into syngeneic, immune-competent mice (MC38 cells) |
| --- | --- | --- | --- | --- | --- | --- | --- |
| NS(=O)(=O)c1ccc(S(=O)(=O)Nc2cccc3c(Cl)c[nH]c23)cc1 [indisulam] | sustained suppression of RBM39 protein | 60 to 1000 nM | 2100 to 73000 nM | did not change | did not inhibit | negligible effects |  |
| CC(C)Oc1ccc(-c2c[nH]cc2CN(C)CCN)cc1 [MS-023] |  |  |  |  | did not inhibit |  | durable suppression of tumor growth |
